Test results: patent publication US20240199676A1, “ANTIVIRAL COMPOUNDS AND METHODS OF MAKING AND USING THE SAME” (Gilead Sciences, Inc., priority 2022, published 2024)

Tests used:
[1] = tested on: Respiratory syncytial virus recombinant with luciferase (RSV-Luc5) in NHBE cells; experiment: NHBE RSV-Luc5 384-well Assay (RSV FLUC NHBE 384 V2, Ex. W); format: cell-based; conditions: human respiratory syncytial virus, 72 h, read-out: EC50 RSV FLUC NHBE 384 V2 (per Ex. W)
Source text: Example W: NHBE RSV-Luc5 384-well Assay (EC50 RSVFLUC NHBE-384)
Normal Human Bronchial Epithelial (NHBE) cells were purchased from Lonza (Walkersville, MD Cat #CC2540) and maintained in BEGM Bronchial Epithelial Cell Growth Medium BulletKit (Lonza CC-3170).
Cells were thawed, expanded, and were used for experiments at passage 2. Respiratory syncytial virus recombinant with luciferase (RSV-Luc5) (≥1×10^7 Infectious Units/mL (IU/mL) determined by TCID50) was purchased from Microbiologics (Saint Cloud, MN). Viral replication was determined in NHBE cells in the following manner.
Compounds are prepared in 100% DMSO in 384-well polypropylene plates (Greiner, Monroe, NC, Cat #784201) with 8 compounds per plate in grouped replicates of 4 at 10 serially diluted concentrations (1:3). The serially diluted compounds were transferred to low dead volume Echo plates (Labcyte, Sunnyvale, CA, Cat #LP-0200).
The test compounds were spotted to 384-well assay plates (Greiner, Monroe, NC, Cat#781091) at 200 nL per well using an Echo acoustic dispenser (Labcyte, Sunnyvale, CA). NHBE cells were harvested and suspended in BEGM Bronchial Epithelial Cell Growth Medium BulletKit and seeded to the pre-spotted assay plates at 5,000 cells per well in 30 μL. RSV-Luc5 virus was diluted in BEGM Bronchial Epithelial Cell Growth Medium BulletKit at 500,000 Infectious Units (IU) per mL and 10 μL per well was added to the assay plates containing cells and compounds, for an MOI of 1. The assay plates were incubated for 3 days at 37° C. and 5% CO2. At the end of incubation, One-Glo reagent (Promega, Madison, WI, Cat #E6120) was prepared. The assay plates and One-Glo reagent were equilibrated to room temperature for at least 15 minutes. 40 μL per well of One-Glo reagent was added and the plates were incubated at room temperature for 15 minutes before reading the luminescence signal on an EnVision multimode plate reader (Perkin Elmer, Waltham, MA). Remdesivir was used as positive control and DMSO was used as negative control. Values were normalized to the positive and negative controls (as 0% and 100% replication, respectively) and data was fitted using non-linear regression analysis by Gilead's dose response tool. The EC50 value for each compound was defined as the concentration reducing the viral replication by 50%.

[2] = GI S9 stability (Ex. Z), human intestinal S9; format: in vitro ADME; conditions: pooled intestinal S9 fractions; human intestinal S9, 1.0 mg/mL protein, 2 μM substrate, pH 7.4; read-out: GIS9 Human T½ (per Ex. Z)
Method: (§1) Example Z: GI S9 stability data:
(§2) Stock solutions of test compounds in dimethyl sulfoxide (DMSO) having a final concentration of 10 mM were prepared and used in all experiments. Sekisui XenoTech (Kansas City, KS) provided pooled intestinal S9 fractions. All other chemicals were purchased from Sigma-Aldrich (St. Louis, MO) or VWR (West Chester, PA). Internal Standard/Quench (IS/Q) used to stop reactions was 100 nM labetalol in (by volume) methanol (10%) and acetonitrile (90%).
(§3) Stability in Intestinal S9 Fractions: Duplicate aliquots of test compound or positive control substrate were added to S9 stock diluted with phosphate buffered saline (137 mM NaCl, 2.7 mM KCl, 10 mM phosphate buffer), pH 7.4, to obtain a protein concentration of 1.0 mg/mL. The metabolic reactions were initiated by the addition of the substrates to the S9 reaction mixture to a final concentration of 2 μM. At 0, 10, 20, 30, 60 and 120 min, 25 μL aliquots of the reaction mixture were transferred to plates containing 225 μl of IS/Q solution. After quenching, the plates were centrifuged at 3000×g for 30 minutes. 150 μL aliquots of each supernatant were dried down then reconstituted with 300 μL water. Aliquots (10 μL) of the prepared samples were analyzed on a Thermo Q-Exactive mass spectrometer as described below.
(§4) Liquid Chromatography—Mass Spectrometry: Quantification of test compounds and control substrate was performed by analyte/internal standard peak area ratio (PAR) values measured on a Thermo Q-Exactive mass spectrometer coupled to a Dionex UltiMate 3000 HPLC with a Leap Technologies HTC PAL autosampler. The column used for analysis was a Waters Acquity BEH C18 (1.7 μm particle size, 2.1×50 mm). Mobile phase A consisted of 0.1% (v/v) formic acid in water. Mobile phase B consisted of 0.1% (v/v) formic acid in acetonitrile. Elution of analytes was achieved by a series of linear gradients varying the proportions of A and B. The mass spectrometer was calibrated on a weekly basis and mass tolerance of 5 ppm was used.
(§5) Metabolic stabilities in S9 fractions were determined by measuring the rates of disappearance of test compound and positive control substrate.
(§6) Data (% of substrate remaining) were plotted on a semi-log scale and fitted using an exponential decline model:
(§7) Where Ct—% of substrate remaining at time=t; C0—% of substrate remaining at time=0; t—time; T½—half-life The Half-life (T½) is determined by the following equation: […]
(§8) Assuming a first-order reaction, the slope (k) is extrapolated from the aforementioned plotted data.

[3] = GI S9 stability (Ex. Z), rat intestinal S9; format: in vitro ADME; conditions: pooled intestinal S9 fractions; rat intestinal S9, 1.0 mg/mL protein, 2 μM substrate, pH 7.4; read-out: GIS9 Rat T½ (per Ex. Z)
Method: as §1, §2, §3, §4, §5, §6, §7, §8

Compound | EC50 [1] [µM] | half-life at 2 μM [2] [min] | half-life at 2 μM [3] [min]
CC(C)(C)C(=O)OC[C@@]1(C#N)O[C@@H](c2ccc3c(N)ncnn23)[C@H](O)[C@@H]1O [Compound 10, ((2R,3S,4R,5S)-5-(4-aminopyrrolo[2,1-f][1,2,4]triazin-7-yl)-2-cyano-3,4-dihydroxytetrahydrofuran-2-yl)methyl pivalate] | 7.87 | 124 | 53
CCC(CC)C(=O)Nc1ncnn2c([C@@H]3O[C@](C#N)(COC(=O)C(CC)CC)[C@@H](O)[C@H]3O)ccc12 [Compound 11, ((2R,3S,4R,5S)-2-cyano-5-(4-(2-ethylbutanamido)pyrrolo[2,1-f][1,2,4]triazin-7-yl)-3,4-dihydroxytetrahydrofuran-2-yl)methyl 2-ethylbutanoate] | 24.6 | 56 | 37
CC(C)[C@H](N)C(=O)OC[C@@]1(C#N)O[C@@H](c2ccc3c(N)ncnn23)[C@H](O)[C@@H]1O [Compound 12, ((2R,3S,4R,5S)-5-(4-aminopyrrolo[2,1-f][1,2,4]triazin-7-yl)-2-cyano-3,4-dihydroxytetrahydrofuran-2-yl)methyl L-valinate] | 10.7 | 2 | 9
CC(C)(C)CC(=O)OC[C@@]1(C#N)O[C@@H](c2ccc3c(N)ncnn23)[C@H](O)[C@@H]1O [Compound 13, ((2R,3S,4R,5S)-5-(4-aminopyrrolo[2,1-f][1,2,4]triazin-7-yl)-2-cyano-3,4-dihydroxytetrahydrofuran-2-yl)methyl 3,3-dimethylbutanoate] | 8.59 | 789 | 185
Cc1ccc(C(=O)OC[C@@]2(C#N)O[C@@H](c3ccc4c(N)ncnn34)[C@H](O)[C@@H]2O)cc1 [Compound 14, ((2R,3S,4R,5S)-5-(4-aminopyrrolo[2,1-f][1,2,4]triazin-7-yl)-2-cyano-3,4-dihydroxytetrahydrofuran-2-yl)methyl 4-methylbenzoate] | 9.6 | 25 | 6
CC1(C(=O)OC[C@@]2(C#N)O[C@@H](c3ccc4c(N)ncnn34)[C@H](O)[C@@H]2O)CC1 [Compound 15, ((2R,3S,4R,5S)-5-(4-aminopyrrolo[2,1-f][1,2,4]triazin-7-yl)-2-cyano-3,4-dihydroxytetrahydrofuran-2-yl)methyl 1-methylcyclopropane-1-carboxylate] | 8.77 | 104 | 23
N#C[C@]1(COC(=O)CC2CCC2)O[C@@H](c2ccc3c(N)ncnn23)[C@H](O)[C@@H]1O [Compound 16, ((2R,3S,4R,5S)-5-(4-aminopyrrolo[2,1-f][1,2,4]triazin-7-yl)-2-cyano-3,4-dihydroxytetrahydrofuran-2-yl)methyl 2-cyclobutylacetate] | 8.36 | 14 | 4
CC1(C)CC(C(=O)OC[C@@]2(C#N)O[C@@H](c3ccc4c(N)ncnn34)[C@H](O)[C@@H]2O)C1 [Compound 17, ((2R,3S,4R,5S)-5-(4-aminopyrrolo[2,1-f][1,2,4]triazin-7-yl)-2-cyano-3,4-dihydroxytetrahydrofuran-2-yl)methyl 3,3-dimethylcyclobutane-1-carboxylate] | 8.7 | 13 | 3
N#C[C@]1(COC(=O)C2CCCC2)O[C@@H](c2ccc3c(N)ncnn23)[C@H](O)[C@@H]1O [Compound 18, ((2R,3S,4R,5S)-5-(4-aminopyrrolo[2,1-f][1,2,4]triazin-7-yl)-2-cyano-3,4-dihydroxytetrahydrofuran-2-yl)methyl cyclopentanecarboxylate] | 8.71 | 8 | 3
N#C[C@]1(COC(=O)C2CCCCC2)O[C@@H](c2ccc3c(N)ncnn23)[C@H](O)[C@@H]1O [Compound 19, ((2R,3S,4R,5S)-5-(4-aminopyrrolo[2,1-f][1,2,4]triazin-7-yl)-2-cyano-3,4-dihydroxytetrahydrofuran-2-yl)methyl cyclohexanecarboxylate] | 10.9 | 13 | 4
CC(C)C(=O)OC[C@@]1(C#N)O[C@@H](c2ccc3c(N)ncnn23)[C@H](OC(=O)C(C)C)[C@@H]1OC(=O)C(C)C [Compound 20, (2R,3S,4S,5S)-5-(4-aminopyrrolo[2,1-f][1,2,4]triazin-7-yl)-2-cyano-2-((isobutyryloxy)methyl)tetrahydrofuran-3,4-diyl bis(2-methylpropanoate)] | 10.4 | 3 | 2
N#C[C@]1(COC(=O)[C@H]2CCC(=O)O2)O[C@@H](c2ccc3c(N)ncnn23)[C@H](O)[C@@H]1O [Compound 25, ((2R,3S,4R,5S)-5-(4-aminopyrrolo[2,1-f][1,2,4]triazin-7-yl)-2-cyano-3,4-dihydroxytetrahydrofuran-2-yl)methyl (R)-5-oxotetrahydrofuran-2-carboxylate] | 11.7 | 3 | 5
CC(=O)OC[C@@]1(C#N)O[C@@H](c2ccc3c(N)ncnn23)[C@H](OC(C)=O)[C@@H]1OC(C)=O [Compound 28, (2R,3S,4S,5S)-2-(acetoxymethyl)-5-(4-aminopyrrolo[2,1-f][1,2,4]triazin-7-yl)-2-cyanotetrahydrofuran-3,4-diyl diacetate] | 24.6 | 5 | 5
CC(C)C(=O)Nc1ncnn2c([C@@H]3O[C@](C#N)(CO)[C@@H](O)[C@H]3O)ccc12 [Compound 30, N-(7-((2S,3R,4S,5R)-5-cyano-3,4-dihydroxy-5-(hydroxymethyl)tetrahydrofuran-2-yl)pyrrolo[2,1-f][1,2,4]triazin-4-yl)isobutyramide] | 38.5 | 789 | 789
N#C[C@]1(COC(=O)C2CC3(CCC3)C2)O[C@@H](c2ccc3c(N)ncnn23)[C@H](O)[C@@H]1O [Compound 32, ((2R,3S,4R,5S)-5-(4-aminopyrrolo[2,1-f][1,2,4]triazin-7-yl)-2-cyano-3,4-dihydroxytetrahydrofuran-2-yl)methyl spiro[3.3]heptane-2-carboxylate] | 6.7 | 12 | 2
